Source: patent US5359075A, “Quinophthalone compound” (Mitsui Toatsu Chemicals, Incorporated, priority 1991, dated 1994)

Assays:
[1] = maximum absorption wavelength; type: physicochemical; details: for λmax: solvent not given
[2] = solubility of each compound in a solvent; type: physicochemical; details: at 20° C., % on weight
Method: For the six compounds (B) to (H) of Examples 1 to 6 and the compounds (I) and (J) for comparison, the solubility of each compound in a solvent was measured.

[3] = Resin coloring suitability test: heat resistance; type: physicochemical; details: 0.02 pts. wt., 300° C./10 min.; for Heat resistance (H), ABS: Acrylonitrile/butadiene/styrene; for Heat resistance (H), PC: Polycarbonate; for Heat resistance (H), PET: Polyethylene glycol terephthalate; for Heat resistance (H), PS: Polystyrene
Method: For the compounds (B, C, D, F, G and H), a resin coloring suitability test was conducted.
H: Heat resistance, 300° C./10 min., Gray scale judgement
Heat resistance and bleed resistance: […]
judgement, and the fifth grade or more was denoted by .circleincircle. an
the third to fifth grades by .largecircle..

[4] = Dichroic ratio / liquid crystal display element in liquid crystal mixture E-8; details: liquid crystal E-8
Method: Each of the dyestuffs of Examples 12 and 13 was added to 9.8 parts of a liquid crystal mixture of a trade name E-8 made by Merck AG, and the mixture was then heated up to about 60° C. to completely dissolve the dyestuff. After cooling, the solution was poured into a liquid crystal display element, and it was then hermetically sealed.
Each sample was put on a light path of a spectrophotometer, and an absorbance A was measured by applying straight polarized light to the liquid crystal in parallel with the arrangement of the liquid crystal and an absorbance A' was measured by applying straight polarized light to the liquid crystal at a right angle to the arrangement of the liquid crystal. By the use of the thus measured absorbances A and A', a dichroic ratio was calculated in accordance with the following formula: […]
Furthermore, as comparative preparation examples, otherwise the same liquid crystals as mentioned above were prepared from compounds for comparison represented by the following formulae (K) and (L).

| SMILES | λmax ([1]; Table 5) | Solubility in Acetone [2] | Solubility in DMF [2] | Solubility in THF [2] | Solubility in Toluene [2] | λmax ([1]; Table 1) | also measured |
| --- | --- | --- | --- | --- | --- | --- | --- |
| CC(=O)OCC1(COC(C)=O)COC(c2ccc3c(c2)C(=O)C(c2nc4ccccc4cc2O)C3=O)=N1 (stereo not drawn) [Example 16] | 450 nm | – | – | – | – | – | – |
| CC1CN=C(c2ccc3c(c2)C(=O)C(c2nc4ccccc4cc2O)C3=O)O1 (stereo not drawn) [B] | – | 3.48% | 6.91% | 6.50% | 3.98% | – | maximum absorption wavelength in toluene [1]: 448 nm; Heat resistance (H), ABS [3]: .largecircle. (the third to fifth grades); Heat resistance (H), PC [3]: .circleincircle. (the fifth grade or more); Heat resistance (H), PET [3]: .largecircle. (the third to fifth grades); Heat resistance (H), PS [3]: .circleincircle. (the fifth grade or more) |
| CCCCNC(=O)c1ccc2c(c1)C(=O)C(c1nc3ccc(C(C)C)cc3cc1O)C2=O (stereo not drawn) [Example 7] | – | – | – | – | – | 450 nm | – |
| CCCCOC(=O)c1ccc2c(c1)C(=O)C(c1nc3ccc(C)cc3cc1O)C2=O (stereo not drawn) [J, reference compound] | – | 0.13% | 0.78% | 0.34% | 0.28% | – | dissolution in the liquid crystal [4]: not completely dissolved |
| CCCCCCNC(=O)c1ccc2c(c1)C(=O)C(c1nc3ccc(C(C)C)cc3c(Br)c1O)C2=O (stereo not drawn) [Example 9] | – | – | – | – | – | 450 nm | – |
| CC(C)c1ccc2nc(C3C(=O)c4ccc(-c5nnc(C(C)C)s5)cc4C3=O)c(O)cc2c1 (stereo not drawn) [Example 15] | 450 nm | – | – | – | – | – | – |
| CCC1(COC(=O)C(C)C)COC(c2ccc3c(c2)C(=O)C(c2nc4ccc(C(C)C)cc4cc2O)C3=O)=N1 (stereo not drawn) [H] | – | 5.31% | 12.64% | 10.38% | 8.85% | – | maximum absorption wavelength in toluene [1]: 450 nm; Heat resistance (H), ABS [3]: .largecircle. (the third to fifth grades); Heat resistance (H), PC [3]: .circleincircle. (the fifth grade or more); Heat resistance (H), PET [3]: .circleincircle. (the fifth grade or more); Heat resistance (H), PS [3]: .circleincircle. (the fifth grade or more) |
| CCCCCCCCOC(=O)c1ccc2c(c1)C(=O)C(c1nc3ccc(CCCC)cc3cc1O)C2=O (stereo not drawn) [I, reference compound] | – | 0.33% | 1.20% | 0.98% | 0.51% | – | dissolution in the liquid crystal [4]: not completely dissolved |
| CCCCCCCCOc1ccc(-c2ccc(N3C(=O)c4cc5c(cc4C3=O)C(=O)C(c3nc4ccc(C(C)C)cc4cc3O)C5=O)cc2)cc1 [Example 12] | – | – | – | – | – | 455 nm | – |
| CCC1(COC(=O)C(C)C)COC(c2ccc3c(c2)C(=O)C(c2nc4ccc(C5CCCCC5)cc4cc2O)C3=O)=N1 (stereo not drawn) [Example 19] | 450 nm | – | – | – | – | – | – |
| CCC1(COC(C)=O)COC(c2ccc3c(c2)C(=O)C(c2nc4ccc(C(C)C)cc4cc2O)C3=O)=N1 (stereo not drawn) [Example 20] | 450 nm | – | – | – | – | – | – |
| CCCCSc1c(O)c(C2C(=O)c3ccccc3C2=O)nc2ccc(C(C)C)cc12 [Example 10] | – | – | – | – | – | 450 nm | – |
| CC(C)c1nnc(-c2ccc3c(c2)C(=O)C(c2nc4ccccc4cc2O)C3=O)o1 (stereo not drawn) [C] | – | 3.95% | 7.03% | 6.55% | 4.22% | – | maximum absorption wavelength in toluene [1]: 450 nm; Heat resistance (H), ABS [3]: .largecircle. (the third to fifth grades); Heat resistance (H), PC [3]: .circleincircle. (the fifth grade or more); Heat resistance (H), PET [3]: .largecircle. (the third to fifth grades); Heat resistance (H), PS [3]: .circleincircle. (the fifth grade or more) |
| CC(C)NC(=O)c1cc2c(cc1C(=O)NC(C)C)C(=O)C(c1nc3ccc(C(C)C)cc3cc1O)C2=O [Example 8] | – | – | – | – | – | 460 nm | – |
| Cc1ccc2oc(-c3ccc(-c4ccc(N5C(=O)c6cc7c(cc6C5=O)C(=O)C(c5nc6ccc(C(C)C)cc6cc5O)C7=O)cc4)cc3)nc2c1 [Example 13] | – | – | – | – | – | 455 nm | – |
| CC(C)c1ccc2nc(C3C(=O)c4ccccc4C3=O)c(O)cc2c1 [D] | – | 1.58% | 3.56% | 2.28% | 1.79% | – | maximum absorption wavelength in toluene [1]: 450 nm; Heat resistance (H), ABS [3]: .largecircle. (the third to fifth grades); Heat resistance (H), PC [3]: .circleincircle. (the fifth grade or more); Heat resistance (H), PET [3]: .largecircle. (the third to fifth grades); Heat resistance (H), PS [3]: .circleincircle. (the fifth grade or more) |
| CCCCN(CCCC)C(=O)c1ccc2c(c1)C(=O)C(c1nc3ccc(C(C)C)cc3cc1O)C2=O (stereo not drawn) [F] | – | 7.10% | 13.49% | 12.63% | 10.52% | – | maximum absorption wavelength in toluene [1]: 450 nm; Heat resistance (H), ABS [3]: .largecircle. (the third to fifth grades); Heat resistance (H), PC [3]: .circleincircle. (the fifth grade or more); Heat resistance (H), PET [3]: .circleincircle. (the fifth grade or more); Heat resistance (H), PS [3]: .circleincircle. (the fifth grade or more) |
| CCCN(CCC)C(=O)c1ccc2c(c1)C(=O)C(c1nc3ccc(C(C)C)cc3cc1O)C2=O (stereo not drawn) [Example 11] | – | – | – | – | – | 450 nm | – |
| CC(=O)OCC1(COC(C)=O)COC(c2ccc3c(c2)C(=O)C(c2nc4ccc(C(C)C)cc4cc2O)C3=O)=N1 (stereo not drawn) [Example 21] | 450 nm | – | – | – | – | – | – |
| CCCCCCC1(CC)COC(c2ccc3c(c2)C(=O)C(c2nc4ccccc4cc2O)C3=O)=N1 (stereo not drawn) [Example 17] | 450 nm | – | – | – | – | – | – |
| CCC1(CO)COC(c2ccc3c(c2)C(=O)C(c2nc4ccc(C(C)C)cc4cc2O)C3=O)=N1 (stereo not drawn) [G] | – | 3.84% | 6.91% | 6.50% | 4.01% | – | maximum absorption wavelength in toluene [1]: 450 nm; Heat resistance (H), ABS [3]: .largecircle. (the third to fifth grades); Heat resistance (H), PC [3]: .circleincircle. (the fifth grade or more); Heat resistance (H), PET [3]: .circleincircle. (the fifth grade or more); Heat resistance (H), PS [3]: .circleincircle. (the fifth grade or more) |
| CCCCCCCCN1CCN=C1c1ccc2c(c1)C(=O)C(c1nc3ccccc3c(Sc3ccc(C(C)(C)C)cc3)c1O)C2=O (stereo not drawn) [Example 14] | 450 nm | – | – | – | – | – | – |
